A short description of the test: Compound was tested in vitro for binding affinity for 5-hydroxytryptamine 1C receptor.

In general, Ki refers to a dissociation constant, usually derived from enzyme kinetics or from competition with a known ligand.

Each structure is given as a SMILES string.

`NC[C@@H]1O[C@H](c2ccccc2)Cc2c1ccc(Br)c2O`: the affinity corresponds to a Ki of 200 nM.

`Cc1ccc2c(c1O)C[C@@H](C1CCCCC1)O[C@H]2CN` returned a Ki of 58 nM. This Ki lies about 3.4-fold lower than the previous one.

The values are drawn from BindingDB's records for doi:10.1021/jm00114a002 (Abbott Laboratories, 1991).
